{"source": "patent US5602167A", "about": "“4-arylcyclohepta[c] pyrrole analgesics” (Ortho Pharmaceutical Corporation, priority 1995, dated 1997)", "data": [{"assay": "Mouse Acetylcholine Bromide-Induced Abdominal Constriction Assay", "format": "in vivo", "details": "30 mg/kg po, 30 min before 5.5 mg/kg i.p. acetylcholine bromide, % analgesia", "units": {"% Inhibition at 30 mg/kg (route)": "%"}, "values": [{"smiles": "CN1C[C@H]2CCCC[C@](O)(c3ccccc3)[C@H]2C1", "note": "(relative stereo) [Cp-1]", "% Inhibition at 30 mg/kg (route)": 93}, {"smiles": "COc1cccc([C@@]2(O)CCCC[C@@H]3CN(C)C[C@@H]32)c1", "note": "(relative stereo) [Cp-2]", "% Inhibition at 30 mg/kg (route)": 80}, {"smiles": "CN1C[C@H]2CCCC[C@](O)(c3ccc(F)cc3)[C@H]2C1", "note": "(relative stereo) [Cp-3]", "% Inhibition at 30 mg/kg (route)": 100}, {"smiles": "CN1C[C@H]2CCCC[C@H](c3ccccc3)[C@H]2C1", "note": "(relative stereo) [Cp-4]", "% Inhibition at 30 mg/kg (route)": 80}, {"smiles": "CN1C[C@H]2CCCC[C@@H](c3ccccc3)[C@H]2C1", "note": "(relative stereo) [Cp-5]", "% Inhibition at 30 mg/kg (route)": 100}, {"smiles": "CN1C[C@H]2CCCC[C@H](c3ccc(F)cc3)[C@H]2C1", "note": "(relative stereo) [Cp-6]", "% Inhibition at 30 mg/kg (route)": 93}, {"smiles": "CN1C[C@H]2CCCC[C@@H](c3ccc(F)cc3)[C@H]2C1", "note": "(relative stereo) [Cp-7]", "% Inhibition at 30 mg/kg (route)": 100}]}, {"assay": "Mouse Acetylcholine Bromide-Induced Abdominal Constriction Assay", "format": "in vivo", "details": "30 mg/kg sc, 5.5 mg/kg i.p. acetylcholine bromide, % analgesia", "units": {"% Inhibition at 30 mg/kg (route)": "%"}, "values": [{"smiles": "COc1cccc([C@H]2CCCC[C@@H]3CN(C)C[C@@H]32)c1", "note": "(relative stereo) [Cp-8]", "% Inhibition at 30 mg/kg (route)": 100}, {"smiles": "COc1cccc([C@@H]2CCCC[C@@H]3CN(C)C[C@@H]32)c1", "note": "(relative stereo) [Cp-9]", "% Inhibition at 30 mg/kg (route)": 90}]}]}
